We go through 17 compounds from patent US8217029B2, “Oxazolidinone antibiotics” (Actelion Pharmaceuticals Ltd, priority 2007, dated 2012).

In brackets after ≈: the same amount, converted by molar mass. A value given as a limit tells only on which side of the number the result lay.

This test relates to S aureus A798. The test is described as follows: Minimal inhibitory concentration (MIC), microdilution method in cation-adjusted Mueller-Hinton Broth following NCCLS guidelines. In kind it is cell-based. As to conditions: pH of test medium 7.2-7.3. The method, boiled down:
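MICs (mg/l) came from NCCLS-guided microdilution, using cation-adjusted Mueller-Hinton medium adjusted to pH 7.2-7.3.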
In the case of `COc1ccc2nccc(N3CC[C@H](NC[C@@H]4CN(c5ccc6c(c5)NC(=O)CO6)C(=O)O4)C3)c2n1` [Example 69, 6-((R)-5-{[(S)-1-(6-Methoxy-[1,5]naphthyridin-4-yl)-pyrrolidin-3-ylamino]-methyl}-2-oxo-oxazolidin-3-yl)-4H-benzo[1,4]oxazin-3-one], the MIC (usually the lowest concentration that inhibits growth of the organism) was no more than 0.031 µg/mL. The figure for `COc1ccc2nccc(N3CCN(C[C@H]4CN(c5ccc6c(c5)OCCO6)C(=O)O4)CC3)c2n1` [Example 37, (S)-3-(2,3-Dihydro-benzo[1,4]dioxin-6-yl)-5-[4-(6-methoxy-[1,5]naphthyridin-4-yl)-piperazin-1-ylmethyl]-oxazolidin-2-one] is 0.063 µg/mL (≈ 0.132 µM); for `COc1ccc2nccc(N3CCN(C[C@@H]4CN(c5ccc(OC(F)F)cc5)C(=O)O4)CC3)c2n1` [Example 20, (R)-3-(4-Difluoromethoxy-phenyl)-5-[4-(6-methoxy-[1,5]naphthyridin-4-yl)-piperazin-1-ylmethyl]-oxazolidin-2-one] it is no more than 0.031 µg/mL; for `COc1ccc2nccc(N3CC[C@@H](NC[C@@H]4CN(c5ccc(C)c(F)c5)C(=O)O4)C3)c2n1` [Example 68, (R)-3-(3-Fluoro-4-methyl-phenyl)-5-{[(R)-1-(6-methoxy-[1,5]naphthyridin-4-yl)-pyrrolidin-3-ylamino]-methyl}-oxazolidin-2-one] it is 0.063 µg/mL (≈ 0.14 µM). In turn, `COc1ccc2nccc(N3CCN(CC4CN(c5ccc6c(n5)NC(=O)CO6)C(=O)O4)CC3)c2n1` (racemic) [Example 113, (RS)-6-{5-[4-(6-Methoxy-[1,5]naphthyridin-4-yl)-piperazin-1-ylmethyl]-2-oxo-oxazolidin-3-yl}-4H-pyrido[3,2-b][1,4]oxazin-3-one] came in with an MIC of no more than 0.031 µg/mL. Compound `COc1ccc2nccc(N3CC[C@@H](NCCC4CN(c5ccc6c(c5)NC(=O)CS6)C(=O)O4)C3)c2n1` (mixture of isomers) [Example 87, 6-((RS)-5-{2-[(R)-1-(6-Methoxy-[1,5]naphthyridin-4-yl)-pyrrolidin-3-ylamino]-ethyl}-2-oxo-oxazolidin-3-yl)-4H-benzo[1,4]thiazin-3-one] displayed a minimal inhibitory concentration (MIC) of no more than 0.031 µg/mL. The figure for `COc1ccc2nccc(N3CCN(C[C@@H]4CN(c5ccc(OC(F)(F)F)cc5)C(=O)O4)CC3)c2n1` [Example 11, (R)-5-[4-(6-Methoxy-[1,5]naphthyridin-4-yl)-piperazin-1-ylmethyl]-3-(4-trifluoromethoxy-phenyl)-oxazolidin-2-one] is 0.063 µg/mL (≈ 0.125 µM). Compound `COc1ccc2nccc(N3CCN(C[C@@H]4CN(c5ccc(C)c(C)c5)C(=O)O4)CC3)c2n1` [Example 27, (R)-3-(3,4-Dimethyl-phenyl)-5-[4-(6-methoxy-[1,5]naphthyridin-4-yl)-piperazin-1-ylmethyl]-oxazolidin-2-one] returned an MIC of no more than 0.031 µg/mL. In turn, `COc1ccc2nccc(N3CC[C@@H](NC(=O)[C@@H]4CN(c5ccc6c(c5)OCCO6)C(=O)O4)C3)c2n1` [Example 61, (S)-3-(2,3-Dihydro-benzo[1,4]dioxin-6-yl)-2-oxo-oxazolidine-5-carboxylic acid [(R)-1-(6-methoxy-[1,5]naphthyridin-4-yl)-pyrrolidin-3-yl]-amide] displayed a minimum inhibitory concentration (MIC) of no more than 0.031 µg/mL. The same measure for `COc1ccc2nccc(N3CCN(CC4CN(c5ccc(C(F)(F)F)cn5)C(=O)O4)CC3)c2n1` (racemic) [Example 44, (RS)-5-[4-(6-Methoxy-[1,5]naphthyridin-4-yl)-piperazin-1-ylmethyl]-3-(5-trifluoromethyl-pyridin-2-yl)-oxazolidin-2-one]: 0.5 µg/mL (≈ 1.02 µM).

Compound `COc1ccc2nccc(N3CC(N(C)C[C@@H]4CN(c5ccc(F)c(Cl)c5)C(=O)O4)C3)c2n1` [Example 136, (R)-3-(3-Chloro-4-fluoro-phenyl)-5-({[1-(6-methoxy-[1,5]naphthyridin-4-yl)-azetidin-3-yl]-methyl-amino}-methyl)-oxazolidin-2-one] yielded an MIC of 0.25 µg/mL (≈ 0.53 µM). Compared with the last compound, the MIC is about 2-fold lower. On to `COc1ccc2nccc(N3CC(N(C)C[C@@H]4CN(c5ccc6c(c5)NC(=O)CS6)C(=O)O4)C3)c2n1` [Example 56, 6-[(R)-5-({[1-(6-Methoxy-[1,5]naphthyridin-4-yl)-azetidin-3-yl]-methyl-amino}-methyl)-2-oxo-oxazolidin-3-yl]-4H-benzo[1,4]thiazin-3-one], for which the minimal inhibitory concentration (MIC) is no more than 0.031 µg/mL. The same measure for `COc1ccc2nccc(N3CCN(C[C@@H]4CN(c5ccc(C)c(Br)c5)C(=O)O4)CC3)c2n1` [Example 32, (R)-3-(3-Bromo-4-methyl-phenyl)-5-[4-(6-methoxy-[1,5]naphthyridin-4-yl)-piperazin-1-ylmethyl]-oxazolidin-2-one]: no more than 0.031 µg/mL. `COc1ccc2nccc(N3CCCN(C(=O)[C@@H]4CN(c5ccc6c(c5)OCCO6)C(=O)O4)CC3)c2n1` [Example 109, (S)-3-(2,3-Dihydro-benzo[1,4]dioxin-6-yl)-5-[4-(6-methoxy-[1,5]naphthyridin-4-yl)-[1,4]diazepane-1-carbonyl]-oxazolidin-2-one]: the MIC was no more than 0.031 µg/mL. The figure for `COc1ccc2nccc(N3C[C@H]4CCN(C[C@@H]5CN(c6ccc7c(c6)NC(=O)CS7)C(=O)O5)[C@H]4C3)c2n1` (mixture of isomers) [Example 93, 6-{(R)-5-{[(3aR*,6aR*)-5-(6-Methoxy-[1,5]naphthyridin-4-yl)-hexahydro-pyrrolo[3,4-b]pyrrol-1-yl]-methyl}-2-oxo-oxazolidin-3-yl}-4H-benzo[1,4]thiazin-3-one] is no more than 0.031 µg/mL. The figure for `COc1ccc2ncc(F)c(N3CC[C@H](NC[C@@H]4CN(c5ccc6c(c5)NC(=O)CS6)C(=O)O4)C3)c2n1` [Example 65, 6-((R)-5-{[(S)-1-(3-Fluoro-6-methoxy-[1,5]naphthyridin-4-yl)-pyrrolidin-3-ylamino]-methyl}-2-oxo-oxazolidin-3-yl)-4H-benzo[1,4]thiazin-3-one] is no more than 0.031 µg/mL.

`COc1ccc2ncc(F)c(N3CC[C@H](NC[C@@H]4CN(c5ccc6c(c5)NC(=O)CO6)C(=O)O4)C3)c2n1` [Example 64, 6-((R)-5-{[(S)-1-(3-Fluoro-6-methoxy-[1,5]naphthyridin-4-yl)-pyrrolidin-3-ylamino]-methyl}-2-oxo-oxazolidin-3-yl)-4H-benzo[1,4]oxazin-3-one] had an MIC of no more than 0.031 µg/mL.
